Series [1] deals with T1, BCRP (ABCG2) (Homo sapiens, UniProt Q9UNQ0).
T1 sequence (Q9UNQ0 whole entry): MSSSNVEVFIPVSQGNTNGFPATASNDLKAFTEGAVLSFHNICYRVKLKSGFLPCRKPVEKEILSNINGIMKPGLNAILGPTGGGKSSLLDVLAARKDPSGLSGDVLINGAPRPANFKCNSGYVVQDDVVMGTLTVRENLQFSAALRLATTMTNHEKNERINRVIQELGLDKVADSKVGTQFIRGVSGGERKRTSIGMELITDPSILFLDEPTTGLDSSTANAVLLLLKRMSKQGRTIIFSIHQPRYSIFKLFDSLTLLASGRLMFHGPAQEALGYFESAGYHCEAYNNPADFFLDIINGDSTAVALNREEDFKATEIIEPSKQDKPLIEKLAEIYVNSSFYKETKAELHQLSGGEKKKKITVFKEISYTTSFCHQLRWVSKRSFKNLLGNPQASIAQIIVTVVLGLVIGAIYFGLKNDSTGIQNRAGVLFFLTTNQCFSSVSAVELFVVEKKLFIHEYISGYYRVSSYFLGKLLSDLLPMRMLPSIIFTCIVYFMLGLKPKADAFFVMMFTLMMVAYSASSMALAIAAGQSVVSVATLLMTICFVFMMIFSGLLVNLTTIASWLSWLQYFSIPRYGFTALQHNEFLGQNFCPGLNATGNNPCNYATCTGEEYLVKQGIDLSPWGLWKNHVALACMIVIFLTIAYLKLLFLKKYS
In words: Activity at human BCRP expressed in MDCK2 cells assessed as basolateral to apical mass balance at 3 uM by liquid scintillation counting analysis. The class given is ADME, cell-based, MDCK-II. Conditions: read-out: Activity.

Series [2] deals with T2, UDP-glucuronosyltransferase 1A1 (Homo sapiens, UniProt P22309).
T2 sequence (P22309 whole entry): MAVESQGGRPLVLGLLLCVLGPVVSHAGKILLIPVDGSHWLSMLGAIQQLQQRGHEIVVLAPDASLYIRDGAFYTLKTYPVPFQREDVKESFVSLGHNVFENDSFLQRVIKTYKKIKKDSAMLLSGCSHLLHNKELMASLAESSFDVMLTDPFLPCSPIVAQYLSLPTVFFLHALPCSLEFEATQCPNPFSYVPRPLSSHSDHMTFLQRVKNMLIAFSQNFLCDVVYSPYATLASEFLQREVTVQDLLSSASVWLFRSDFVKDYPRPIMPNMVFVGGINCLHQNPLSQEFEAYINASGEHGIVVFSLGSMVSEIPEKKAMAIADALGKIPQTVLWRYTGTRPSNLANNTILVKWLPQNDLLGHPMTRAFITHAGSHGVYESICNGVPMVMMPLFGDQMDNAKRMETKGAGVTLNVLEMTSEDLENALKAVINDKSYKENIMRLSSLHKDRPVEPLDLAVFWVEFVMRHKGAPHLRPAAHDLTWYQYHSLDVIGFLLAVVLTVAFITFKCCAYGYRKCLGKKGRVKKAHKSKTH
In words: Drug metabolism in UDPGA-fortified human liver microsomes assessed as UGT1A1-mediated DTG glucuronide M2 ((2S,3S,4S,5R,6S)-6-((4R,12aS)-9-(2,4-difluorobenzylcarbamoyl)-4-methyl-6,8-dioxo-3,4,6,8,12,12a-hexahydro-2H-[1,3]oxazino[3,2-d]pyrido[1,2-a]pyrazin-7-yloxy)-3,4,5-trihydroxytetrahydro-2H-pyran-2-carboxylic acid) formation after 120 mins measured per mg of protein by radio-HPLC analysis. The class given is ADME. (Liver microsomes are vesicles of endoplasmic reticulum, rich in cytochrome P450 enzymes.)

The target of series [3] is Cytochrome P450 2C19 (Homo sapiens, UniProt P33261). In words: Metabolism-dependent inhibition of CYP2C19 in human liver microsomes using S-mephenytoin as substrate preincubated for 20 mins with NADPH prior to initiation of reaction with probe substrate by HPLC analysis. Type of series: ADME.
Sequence of Cytochrome P450 2C19 (P33261 whole entry): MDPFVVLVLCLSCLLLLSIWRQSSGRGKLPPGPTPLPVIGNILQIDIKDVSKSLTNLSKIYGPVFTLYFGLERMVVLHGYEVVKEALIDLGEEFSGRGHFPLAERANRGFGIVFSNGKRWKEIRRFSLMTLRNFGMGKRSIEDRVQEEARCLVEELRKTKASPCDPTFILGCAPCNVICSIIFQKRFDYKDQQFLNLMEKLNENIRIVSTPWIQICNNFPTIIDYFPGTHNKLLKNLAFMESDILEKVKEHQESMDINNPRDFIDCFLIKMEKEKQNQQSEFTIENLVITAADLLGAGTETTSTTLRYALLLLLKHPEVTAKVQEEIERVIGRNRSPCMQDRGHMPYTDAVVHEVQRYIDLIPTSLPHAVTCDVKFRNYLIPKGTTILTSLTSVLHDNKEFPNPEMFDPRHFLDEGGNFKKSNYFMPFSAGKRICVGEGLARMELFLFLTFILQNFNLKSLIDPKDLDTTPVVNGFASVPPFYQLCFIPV

Structures are written as SMILES. pIC50: −log10 of the molar value.

The source of these data is ChEMBL document CHEMBL3526034 (Drug Metab Dispos, 2013).

For the molecule `C[C@@H]1CCO[C@H]2Cn3cc(C(=O)NCc4ccc(F)cc4F)c(=O)c(O)c3C(=O)N12` [DOLUTEGRAVIR], in series [1], the recovery at 3 µM was determined as 85%. Moreover, the Vmax (commonly the rate approached at saturating substrate) in series [2] was found to be 409 pmol/min. For the same molecule, in series [3], the pIC50 (in general, −log10 of the IC50, conventionally taken in molar units) is < 4.00.
